Some test systems named below: SNB-75 CNS; SK-MEL-28 melanoma; PC-3 prostate; RXF 393 renal; SNB-19 CNS; A549 NSCLC; A498 renal; CCRF-CEM leukemia; UACC-257 melanoma; UACC-62 melanoma.
Common to all, as to experiment: inhibition of tumour cell growth, NCI panel, 48 h

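96-well plates; 48 h exposure; 5 concentrations. Endpoints by linear interpolation between flanking doses. Not reached: highest tested concentration assigned. GI50 is the concentration that inhibits growth by half. TGI denotes the concentration required for complete inhibition of growth.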

Take `O=C(N/N=C/c1coc2ccc(Cl)cc2c1=O)c1cc(O)c(O)c(O)c1`: the GI50 is 72 µM in the assay on SNB-75 CNS; 65.7 µM with SK-MEL-28 melanoma; 33.2 µM in the assay on PC-3 prostate; 34.9 µM in the assay on RXF 393 renal; 72.8 µM in the assay with SNB-19 CNS; 31.4 µM in the assay on A549 NSCLC. In addition, the GI50 is 13.6 µM in the assay with A498 renal, 33.2 µM in the assay with CCRF-CEM leukemia, 39.9 µM in the assay on UACC-257 melanoma and 19.8 µM with UACC-62 melanoma. Besides, the TGI in the assay with SNB-75 CNS, in the assay with SK-MEL-28 melanoma, with PC-3 prostate, in the assay with RXF 393 renal, with SNB-19 CNS and in the assay with A549 NSCLC was over 100 µM each time. The TGI is 42.3 µM with A498 renal, over 100 µM in the assay with CCRF-CEM leukemia, over 100 µM with UACC-257 melanoma and 40.1 µM in the assay with UACC-62 melanoma.
As to `COc1cccc(/C=C2\COc3ccc(O)c(O)c3C2=O)c1OC`, the GI50 in the assay with SNB-75 CNS is 3.61 µM; in the assay with SK-MEL-28 melanoma, 3.53 µM; in the assay on PC-3 prostate it was 2.22 µM; with RXF 393 renal, 1.76 µM; in the assay with SNB-19 CNS, 3.07 µM; in the assay with A549 NSCLC, 2.58 µM. Also, the GI50 is 4.01 µM in the assay with A498 renal, 0.61 µM in the assay on CCRF-CEM leukemia, 2.37 µM in the assay with UACC-257 melanoma and 1.8 µM in the assay on UACC-62 melanoma. In addition, the TGI with SNB-75 CNS turned out to be 20.9 µM; with SK-MEL-28 melanoma, 12.9 µM; in the assay with PC-3 prostate, 11 µM; in the assay on RXF 393 renal, 3.42 µM; in the assay with SNB-19 CNS, 12 µM; in the assay with A549 NSCLC it was 14.2 µM. Further, the TGI with A498 renal was 13.9 µM; in the assay on CCRF-CEM leukemia, over 100 µM; in the assay with UACC-257 melanoma, 7.18 µM; in the assay on UACC-62 melanoma it was 4.53 µM.
Regarding `Nc1ncnc2occ(-c3ccc(NC(=O)Nc4cccc(C(F)(F)F)c4)cc3)c12`, the GI50 with SNB-75 CNS is 3.77 µM; in the assay with SK-MEL-28 melanoma it was 4.89 µM; in the assay with PC-3 prostate, 4.94 µM; in the assay on RXF 393 renal, 1.71 µM; in the assay with SNB-19 CNS it was 7.69 µM; with A549 NSCLC it was 4.73 µM. In addition, the GI50 was 0.422 µM in the assay with A498 renal, 3.51 µM in the assay on CCRF-CEM leukemia, 4.24 µM in the assay with UACC-257 melanoma and 3.02 µM in the assay with UACC-62 melanoma. For the same molecule, the TGI in the assay with SNB-75 CNS turned out to be 9.69 µM; with SK-MEL-28 melanoma, 12.7 µM; in the assay with PC-3 prostate, 13.3 µM; with RXF 393 renal it was 5.39 µM; in the assay with SNB-19 CNS, 21.3 µM; in the assay on A549 NSCLC, 14.9 µM. In addition, the TGI in the assay with A498 renal amounted to 3.22 µM; with CCRF-CEM leukemia it was 20.1 µM; in the assay on UACC-257 melanoma it was 8.86 µM; with UACC-62 melanoma, 6.54 µM.

Values taken from PubChem BioAssay (NCI).
